From patent publication US8114412B2, “T. cruzi-derived neurotrophic agents and methods of use therefor” (priority 1999, dated 2012)
Entries after “also recorded” stand apart in the source; their conditions may differ.

Tests used:
[1] = tested on: human intestinal microvascular endothelial cells (HIMEC); assay: IL-6 secretion by HIMEC (ELISA); assay type: cell-based; settings: 24 hrs culture
Description: (§1) Primary cultures of human intestinal microvascular endothelial cells (HIMEC) isolated from normal jejunal mucosa/submucosal tissue were prepared as described (Strong et al., Gastroenterology 114: 1244-1256 (1998)). The HIMEC were cultured in fibronectin-coated plasticware in MCDB medium (Sigma) supplemented with 20% FBS, 90 μg/ml heparin and 50 μg/ml endothelial cell growth factor (Sigma). T-24 cells (ATCC Accession No. HTB-4) were cultured in M199 medium supplemented with 10% FBS. PBMC were purified by Ficoll-Paque gradient as described (Current Protocols in Immunology, pp 7.1.1-7.1.2). Vero cells (ATCC Accession No. CCL-81) were grown in RPMI medium with 5% Nu serum and infected with the Silvio X-10/4 of T. cruzi as described previously (Chuenkova et al., J. Exp. Med. 181: 1693-1703, (1995)).
Endothelial cells and T-24 cells were plated on 24-well plates at a density of 1×10^3 cells/well, while peripheral blood mononuclear cells (PBMC) were plated in the similar wells at 1×10^6/well. Triplicat cultures of cells were incubated test agents for a predetermined amount of time. […] Cytokines and chemokines released in the culture supernatants were measured by ELISA assay following the instructions of the manufacturer (Endogen). The cytokines tested were IL-1β, IL-4, IL-8, IL-10, IL-12, IFN-γ, TNF-α, and the chemokines RANTES and MCP-1. […]

PC12 cells [2] = assay: Trophic factor withdrawal-induced apoptosis of PC12 cells (DAPI/TUNEL); assay type: cell-based, rat; settings: for protection of PC12 cells from apoptosis induced by trophic factor withdrawal: 17 hours; for inhibition of apoptosis of PC12 cells by peptides: further studies
Text: (§2) PC12 cells were obtained from ATCC (Manassas, Va. (Accession No. CRL-1721)) and cultured on collagen-coated dishes in RPMI 1640 supplemented with 10% horse serum and 5% fetal bovine serum (Greene, L. A. and Tishler, A. S., Proc. Natl. Acad. Sci. USA, 73: 2424-2428 (1976)). For differentiation and survival experiments, cells were washed three times in serum-free RPMI/0.2% BSA, plated in the same medium in collagen-coated plastic dishes at 2×10^5/ml, without and with growth factors, TS, recombinant proteins, synthetic peptides, for the time and concentrations indicated in the Figures.
Cell staining with 4,6-diamino-2-phenylindole (DAPI). Cells were fixed with 4% formaldehyde in PBS for 5 minutes, washed with PBS, stained with 10 μg/ml DAPI (Sigma) for 2 minutes, washed with PBS, and visualized under UV light using a fluorescent microscope. About 300-400 cells were examined under the microscope to determine the percentage of apoptotic cells.
Cell DNA nick end labeling (TUNEL) (Gavrieli, Y., et al., J. Cell. Biol. 119: 493-501 (1992)) assay was performed using a kit purchased from Boehringer Mannheim as described by the manufacturer.
(§3) Protection against apoptosis of PC12 cells in serum-free medium containing a test agent (agent N)(e.g., protection induced by TS, TS fragments, NGF or other growth factors), was calculated by the formula: 100%-[(apoptosis(%) of cells kept in RPMI containing test agent N÷apoptosis (%) of cells kept in RPMI)×100%]. Testing the effect of wortmannin (Sigma) and LY294002 (Sigma) in inhibiting the neuroprotection of TS was performed following the protocol described by others (Yao and Cooper, Science, 267:2003-2006 (1995); D'Mello et al., J. Neurosci 17:1548-1560 (1997)). In brief, PC12 cells were switched from growth medium to RPMI without and with TS or various other growth factors. After 24 hr, wortmannin and LY294002 were added to the cultures. After another 24 hrs, cells were examined for apoptosis by the DAPI assay, as above.

PC12 cells [3] = assay: Neurite outgrowth assay in PC12 cells; assay type: cell-based, rat
Text: as §2
96-well microtiter plates were coated overnight at 4° C. with the TS or peptides or fragments thereof, or with control proteins laminin (Ln) or bovine serum albumin (BSA) at 500 μg/ml. After removing the compounds, the plates were further incubated with 1% BSA for 1 hour at room temperature and immediately used as substratum for PC12 or N18 (Prasad, K. N., Biol Rev Camb Philos Soc, 66:431-451 (1991)) cells in serum-free RPMI/0.2% BSA. Neurite outgrowth was measured using a phase-contrast microscope 17 hours later.

human Schwann cells = assay: Serum withdrawal-induced apoptosis of immortalized human Schwann cells (DAPI); assay type: cell-based; settings: for inhibition of apoptosis of Schwann cells by peptides: further studies
N18 cells = assay: Neurite outgrowth assay in N18 cells; assay type: cell-based; settings: immobilized proteins coated at 500 μg/ml, 17 hours (FIG. 3A)
Description: FIG. 3A is a graph showing that neurite outgrowth in N18 cells is induced by immobilized laminin (Ln), immobilized TS and immobilized fragments of TS. Proteins were immobilized by incubating plates which contained wells filled with solutions of the proteins (protein concentration was 500 μg/ml) at 4° C. overnight. The protein solutions were removed and the plates were further incubated with 1% BSA at room temperature for one hour. N18 cells were cultured in the coated wells in serum-free RPMI-1640/0.2% BSA for 17 hours, and neurite outgrowth was measured by phase-contrast microscopy. […] Ln, laminin; TS, purified T. cruzi trans-sialidase; 7F, recombinant TS from clone 7F; 19Y, recombinant TS from clone 19Y; TS-F, recombinant fragment consisting of amino acid residues 33-666 of TS (SEQ ID NO:2); TS-CC-47, recombinant fragment consisting of amino acid residues 79-478 of TS (SEQ ID NO:2); TS-Cat-47, recombinant fragment consisting of amino acid residues 79-415 of TS (SEQ ID NO:2); BSA, bovine serum albumin.
96-well microtiter plates were coated overnight at 4° C. with the TS or peptides or fragments thereof, or with control proteins laminin (Ln) or bovine serum albumin (BSA) at 500 μg/ml. […] Neurite outgrowth was measured using a phase-contrast microscope 17 hours later.

[4] = tested on: primary cultures of rat Schwann cells; settings: reported (Weiner and Chun 1999); cited from earlier work
[5] = tested on: peripheral blood mononuclear cells (PBMC); assay: IL-6 secretion by PBMC (ELISA); assay type: cell-based, human; set-up: IL-6 secretion by PBMC: dose or concentration left out as unconfirmed; settings: 24 hrs culture
Description: as §1
Endothelial cells and T-24 cells were plated on 24-well plates at a density of 1×10^3 cells/well, while peripheral blood mononuclear cells (PBMC) were plated in the similar wells at 1×10^6/well. Triplicat cultures of cells were incubated test agents for a predetermined amount of time. […] Cytokines and chemokines released in the culture supernatants were measured by ELISA assay following the instructions of the manufacturer (Endogen). The cytokines tested were IL-1β, IL-4, IL-8, IL-10, IL-12, IFN-γ, TNF-α, and the chemokines RANTES and MCP-1. Negative controls were cells incubated in medium containing polymixin B at 10 μg/ml, and positive controls were cells incubated with bacterial LPS at the low ng/ml range (for PBMC or HIMEC) or in the μg/ml range for carcinoma T-24 cells. In some experiments, IL-1β, or TNFα were used as positive control for cytokine release.
TR peptides (Table 2) were synthesized at the Tufts Synthesis Facility (Boston, Mass.). Each peptide was purified by HPLC, and the number of amino acids and molecular weight of each peptide verified by mass spectrometry. Peptides were dissolved in growth medium (10% FCS in RPMI) and added at various concentrations to 1×10^6 PBMC/well in 24-well plates. After 24 hrs, IL-6 was assayed by ELISA in the conditioned supernatants.

normal human neutrophils = assay: IL-6 production by normal human neutrophils; assay type: cell-based
PC12 cells [6] = assay: Reversal of TS-induced neuroprotection by PI-3 kinase inhibitors in PC12 cells; assay type: cell-based, rat; set-up: neuronal viability relative to TS-F without wortmannin / neuronal viability relative to TS-F+CNTF without wortmannin: dose or concentration left out as unconfirmed
Description: as §3

[7] = neurite outgrowth assay, concentration not given
[8] = synthetic peptides 1 μM, DAPI (FIG. 6B)

Row | Molecule | neurite outgrowth in PC12 cells (PC12 cells [3]; [7]) | apoptosis suppressing effect of peptide in presence of PI-3 kinase inhibitor LY294002, Schwann cells (human Schwann cells) | inhibition of apoptosis of Schwann cells by peptides (human Schwann cells) | apoptosis suppressing effect of peptide in presence of PI-3 kinase inhibitor LY294002, PC12 cells (PC12 cells [2]) | inhibition of apoptosis of PC12 cells by peptides (PC12 cells [2]) | also measured
1 | VCNA: neuraminidase from Vibrio cholera, Calbiochem [reference compound] | did not induce neurite outgrowth |  |  |  |  | IL-6 secretion by HIMEC [1]: did not stimulate detectable IL-6 secretion; protection of PC12 cells from apoptosis induced by trophic factor withdrawal (PC12 cells [2]; serum-free RPMI-1640/0.2% BSA, DAPI or TUNEL): did not; neurite outgrowth in PC12 cells (PC12 cells [3]; soluble in serum-free RPMI-1640/0.2% BSA, collagen coated dishes, 16 hours, NGF 0.1 μg/ml, VCNA 2.4 μg/ml, TS 1 μg/ml): does not induce neurite outgrowth
2 | VNASTAN [CYFN] |  | inhibited | did not inhibit apoptosis | inhibited | did not inhibit apoptosis | 
3 | GNASQNYWEDAYRC [CYN2] |  | inhibited | suppressed apoptosis but was less active | inhibited | suppressed apoptosis but was less active | 
4 | laminin [reference compound] |  |  |  |  |  | neurite outgrowth in N18 cells (N18 cells): induced
5 | lysophosphatidic acid |  |  |  |  |  | active dose for primary cultures of rat Schwann cells [4]: ≥ 10 nM
6 | QPLRRQRVVVVPLSPRLVLLAFCRQRLPLKRMGGSYRCVNASTAN [peptide C44] | had direct neurotrophic activity; also recorded: induce dose dependent outgrowth of neurites | inhibited | potent suppressors of apoptosis | inhibited | potent suppressors of apoptosis | protection of PC12 cells from apoptosis induced by trophic factor withdrawal (PC12 cells [2]; [8]): protected PC12 cells from apoptosis
7 | YSVDDGETWE [peptide B2, control peptide] | did not induce neurite outgrowth; also recorded: did not promote neurite outgrowth |  | did not inhibit apoptosis |  | did not inhibit apoptosis | 
8 | RQRLPKRMGGSYRC [peptide C14] | had direct neurotrophic activity; also recorded: induce dose dependent outgrowth of neurites | inhibited | potent suppressors of apoptosis | inhibited | potent suppressors of apoptosis | protection of PC12 cells from apoptosis induced by trophic factor withdrawal (PC12 cells [2]; [8]): protected PC12 cells from apoptosis
9 | DSSAHGAPSTPADSSAHGTPSTPV [TR2] |  |  |  |  |  | IL-6 secretion by PBMC [5]: less active
10 | DSSAHGAPSTPADSSAHGTPSTPVDSSAHGTPSTPA [TR3] |  |  |  |  |  | IL-6 secretion by PBMC [5]: less active
11 | TNF-A |  |  |  |  |  | IL-6 production by normal human neutrophils (normal human neutrophils): did elicit secretion of IL-6
12 | DSSAHGAPSTPADSSAHGTPSTPVDSSAHGTPSTPADSSAHSTPSTPADSSAHSTPSTPA [TR5] |  |  |  |  |  | IL-6 secretion by PBMC [5]: active in promoting IL-6 release
13 | COC[C@H]1OC(=O)c2coc3c2[C@@]1(C)C1=C(C3=O)[C@@H]2CCC(=O)[C@@]2(C)C[C@H]1OC(C)=O [wortmannin] |  |  |  |  |  | neuronal viability relative to TS-F without wortmannin (PC12 cells [6]; wortmannin with TS-F): 57±2%; neuronal viability relative to TS-F+CNTF without wortmannin (PC12 cells [6]; wortmannin with TS-F+CNTF): 80±3%
14 | DSSAHGAPSTPADSSAHGTPSTPVDSSAHGTPSTPADSSAHSTPSTPA [TR4] |  |  |  |  |  | IL-6 secretion by PBMC [5]: active in promoting IL-6 release
15 | DSSAHGTPSTPA [peptide TR, control peptide derived from the tandem repeat] | did not induce neurite outgrowth; also recorded: did not promote neurite outgrowth |  | did not inhibit apoptosis |  | did not inhibit apoptosis | 
16 | GNASQNVWEDAYRCVNASTAN [C19Y21] |  | inhibited | potent suppressors of apoptosis | inhibited | potent suppressors of apoptosis | 
17 | DSSAHGAPSTPA [peptide TR1] |  |  |  |  |  | IL-6 secretion by PBMC [5]: less active
18 | RQRLPKRMGGSYRCVNASTAH [CFN1] | had direct neurotrophic activity | inhibited | potent suppressors of apoptosis | inhibited | potent suppressors of apoptosis | 
